Test results as given in US9399656B2, “Compound, method for producing same, and use of same” (Microbial Chemistry Research Foundation, priority 2011, dated 2016).

What was measured:
Format in all cases: cell-based, human
[1] = test system: PGI2 production in SW982 cell; test: PGI2 production inhibitory action (6-keto-PGF1α enzyme immunoassay) in bradykinin-stimulated SW982 cells; conditions: bradykinin 1 nM, 30 min, test substance 14 to 10,000 ng/mL, FIG. 5
Experimental: The compound represented by the Structural Formula (A) was evaluated for a PGI2 production inhibitory action as follows. PGI2 is metabolized to 6-keto-PGF1α (6-keto-prostaglandin F1α) which is a stabilized metabolite. Therefore, a concentration of PGI2 produced can be determined by measuring a concentration of 6-keto-PGF1α.
A SW982 cell which is human […] cell line (purchased from ATCC) was suspended into DMEM/F12 (manufactured by Thermo Fisher Scientific) containing 10% fetal bovine serum (manufactured by Biowest), followed by inoculating into a 96-well culture plate at 1×10^4 cells/well and incubating overnight. […]
As a negative control, a 6-keto-PGF1α concentration E was measured in the same manner as in the measurement of the 6-keto-PGF1α concentration in the system containing the test substance, except that neither the test substance nor bradykinin (inflammatory stimulating agent) was added.
As a positive control, a 6-keto-PGF1α concentration F was measured in the same manner as in the measurement of the 6-keto-PGF1α concentration in the system containing the test substance, except that the test substance was not added.
Based on the measurement result of 6-keto-PGF1α concentration in the each well, a 6-keto-PGF1α production rate was calculated according to the following Expression (2): 6-keto-PGF1α production rate (%)=(D−E)/(F−E)×100 Expression (2) […]

[2] = test system: PGE2 production in SW982 cell; test: PGE2 production inhibitory action in bradykinin-stimulated SW982 cells (HTRF kit); conditions: bradykinin 1 nM, 30 min, test substance 2 to 10,000 ng/mL, FIG. 5
Experimental: The compound represented by the Structural Formula (A) was evaluated for a PGE2 production inhibitory action as follows.
A SW982 cell which is a human […] cell line (purchased from ATCC (American Type Culture Collection)) was suspended into DMEM/F12 (Dulbecco's Modified Eagle Medium: Nutrient Mixture F-12, manufactured by Thermo Fisher Scientific) containing 10% fetal bovine serum (manufactured by Nichirei Corporation), followed by inoculating into a 96-well culture plate at 1×10^4 cells/well and incubating overnight.
After the incubation overnight, the medium in the 96-well culture plate containing the SW982 cells was replaced with HEPES-HANKS buffer (manufactured by NISSUI PHARMACEUTICAL CO., LTD.). […] After incubating for 30 min, a culture supernatant was collected, followed by measuring a PGE2 concentration A in the culture supernatant using a kit based on a HTRF (Homogeneous Time-Resolved Fluorescence) method (62P2APEB, manufactured by Cisbio Bioassays).
As a negative control, a PGE2 concentration B was measured in the same manner as in the measurement of the PGE2 concentration in the system containing the test substance, except that neither the test substance nor bradykinin (inflammatory stimulating agent) was added. […]

SW982 cell = test: Cytotoxicity test (Cell Counting Kit-8, cell proliferation rate); conditions: SW982 cells, 48 hours
Experimental: The compound represented by the Structural Formula (A) was evaluated for cytotoxicity as follows.
A SW982 cell (purchased from ATCC) at 2×10^3 cells/well was prepared with DMEM/F12 medium (manufactured by Thermo Fisher Scientific) containing 10% fetal bovine serum (manufactured by Nichirei Corporation), followed by inoculating into a 96-well culture plate so that each well contained 0.1 mL. At the same time, the test substance produced in Production Example 1 (the compound represented by the Structural Formula (A)) was added to each well at a concentration described in the following Table 1, followed by incubating for 48 hours under a condition of 37° C. and 5% CO2. After the incubation for 48 hours, 10 μL of a cytometric kit (CELL COUNTING KIT-8, manufactured by DOJINDO LABORATORIES) was added to the each well, followed by incubating for 2 hours. Then, an absorbance at 450 nm G was measured.
The cytometric kit allows living cells to develop a color. Accordingly, the higher absorbance at 450 nm is, the larger the number of living cells is, that is, cell proliferation is not affected. Therefore, based on the measurement result of absorbance in the each well, a cell proliferation rate was calculated according to the following Expression (3) to thereby evaluate an influence upon the cell proliferation: Cell proliferation rate (%)=G/H×100 Expression (3)
G denotes an absorbance at 450 nm in the system containing the test substance, and
H denotes an absorbance at 450 nm in the system containing no test substance (i.e., at a concentration of 0 nM in the following Table 1).

COC1=C(C)C(=O)c2ccc(OC3OC(C)C(O)C(O)C3O)c(NNC(C)=O)c2C1=O (stereo not shown) [Structural Formula (A)]
6-keto-PGF1α production rate [1]: decreased | PGE2 production rate [2]: decreased | Cell proliferation rate (%) (SW982 cell; concentration 111 nM): 100% | Cell proliferation rate (%) (SW982 cell; concentration 333 nM): 103% | Cell proliferation rate (%) (SW982 cell; concentration 10,000 nM): 111% | Cell proliferation rate (%) (SW982 cell; concentration 30,000 nM): 95% | Effect on cell proliferation of the SW982 cell (SW982 cell; up to 30,000 nM (Table 1)): not to affect cell proliferation
